Measured values published in PubChem BioAssay (NCI).
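Values below derive from 48-hour exposures of cells grown in 96-well plates, with endpoints linearly interpolated between the two concentrations bracketing the appropriate inhibition level. TGI denotes the concentration required for complete inhibition of growth.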

Assays:
Assay in all cases: DTP human tumour cell line panel, 48 h
A498 renal = tested on: A498 renal
ACHN renal = tested on: ACHN renal
COLO 205 colon = tested on: COLO 205 colon
HCC-2998 colon = tested on: HCC-2998 colon
HCT-116 colon = tested on: HCT-116 colon
HCT-15 colon = tested on: HCT-15 colon
HOP-62 NSCLC = tested on: HOP-62 NSCLC
HT29 colon = tested on: HT29 colon
IGROV1 ovarian = tested on: IGROV1 ovarian
KM12 colon = tested on: KM12 colon
MALME-3M melanoma = tested on: MALME-3M melanoma
MOLT-4 leukemia = tested on: MOLT-4 leukemia
NCI-H460 lung = tested on: NCI-H460 lung
NCI/ADR-RES ovarian = tested on: NCI/ADR-RES ovarian
OVCAR-8 ovarian = tested on: OVCAR-8 ovarian
SK-MEL-2 melanoma = tested on: SK-MEL-2 melanoma
SN12C renal = tested on: SN12C renal
TK-10 renal = tested on: TK-10 renal
UACC-62 melanoma = tested on: UACC-62 melanoma
T-47D breast = tested on: T-47D breast

SMILES	TGI (A498 renal) [µM]	TGI (ACHN renal) [µM]	TGI (COLO 205 colon) [µM]	TGI (HCC-2998 colon) [µM]	TGI (HCT-116 colon) [µM]	TGI (HCT-15 colon) [µM]	TGI (HOP-62 NSCLC) [µM]	TGI (HT29 colon) [µM]	TGI (IGROV1 ovarian) [µM]	TGI (KM12 colon) [µM]	TGI (MALME-3M melanoma) [µM]	TGI (MOLT-4 leukemia) [µM]	TGI (NCI-H460 lung) [µM]	TGI (NCI/ADR-RES ovarian) [µM]	TGI (OVCAR-8 ovarian) [µM]	TGI (SK-MEL-2 melanoma) [µM]	TGI (SN12C renal) [µM]	TGI (TK-10 renal) [µM]	TGI (UACC-62 melanoma) [µM]	TGI (T-47D breast) [µM]
N#CSC#Cc1ccc(C#CSC#N)cc1	36.8	30.1	34.6	34.3	38.7	38	39.3	42.1	30.5	36.8	51.9	> 100	38.9	42.5	42.6	38.8	34.6	31.3	32.5	–
O=C1OC[C@@H]2Cc3cc4c(cc3[C@H](c3ccc5c(c3)OCO5)[C@@H]12)OCO4	–	> 25	> 25	> 25	> 25	> 25	> 25	> 25	–	> 25	> 25	> 25	> 25	> 25	> 25	> 25	> 25	> 25	–	–
COc1ccc(C2S/C(=C\c3ccccc3O)C(=O)N2NC(=O)Cc2ccccc2)cc1 (centres undefined)	> 100	> 100	> 100	–	> 100	> 100	> 100	> 100	> 100	> 100	> 100	> 100	> 100	–	> 100	> 100	> 100	> 100	> 100	–
CC1CC(N)=Nc2ccccc2N1 (centres undefined)	–	> 100	> 100	> 100	> 100	> 100	> 100	> 100	> 100	> 100	> 100	> 100	–	> 100	> 100	> 100	> 100	> 100	> 100	–
Nc1nc(Cl)c(N)c(NC23CC4CC(CC(C4)C2)C3)n1	8.13	4.69	3.13	7.89	2.92	13.3	4.3	3.42	> 100	3.67	10.1	4.81	17.7	–	6.59	1.16	3.32	5.54	3.64	3.61
COc1ccc(C2CC(=O)CC(c3ccc(OC)cc3)C23C(=O)NC(=O)NC3=O)cc1 (centres undefined)	–	78.1	89	45.7	> 100	> 100	82.2	> 100	80	72.9	73	64.8	> 100	> 100	> 100	46.7	97.9	> 100	> 100	–
S=C(c1c[nH]c2ccccc12)N1CCOCC1	> 100	> 100	> 100	–	> 100	> 100	> 100	> 100	> 100	> 100	> 100	> 100	> 100	> 100	> 100	> 100	> 100	> 100	> 100	–
CN(c1ccc(Cl)cc1)S(=O)(=O)c1cccc([N+](=O)[O-])c1	–	> 100	> 100	> 100	> 100	> 100	> 100	> 100	> 100	> 100	> 100	> 100	> 100	> 100	> 100	> 100	> 100	> 100	> 100	–
O=S1(=O)OCCOS(=O)(=O)C1F	–	> 100	> 100	> 100	> 100	> 100	> 100	> 100	–	> 100	> 100	> 100	–	> 100	> 100	> 100	> 100	> 100	> 100	> 100
CCn1c(-c2cc(OC)cc(OC)c2)nc2c1C(=O)c1ccccc1C2=O	–	> 100	> 100	> 100	> 100	> 100	> 100	> 100	> 100	> 100	> 100	> 100	> 100	> 100	> 100	–	> 100	> 100	> 100	> 100
Cc1cc(C)c(S(=O)(=O)N2CCCN(S(=O)(=O)c3c(C)cc(C)cc3C)OCCCON(S(=O)(=O)c3c(C)cc(C)cc3C)CCCN(S(=O)(=O)c3c(C)cc(C)cc3C)OCCCO2)c(C)c1	–	> 100	> 100	> 100	> 100	> 100	> 100	> 100	> 100	> 100	> 100	> 100	> 100	> 100	> 100	> 100	–	> 100	> 100	–
COc1cc(/C=C2\CCC(C)C3C2=NN(C(C)=O)C3c2cc(OC)c(OC)c(OC)c2)cc(OC)c1OC (centres undefined)	> 100	> 100	> 100	> 100	> 100	> 100	> 100	> 100	9.7	> 100	> 100	> 100	> 100	–	> 100	> 42.4	> 100	> 100	> 100	67.8
CNC(=S)N(C)C(=S)Nn1c(=O)c(C)nn(C)c1=S	> 100	> 100	> 100	–	> 100	> 100	> 100	> 100	> 100	> 100	–	> 100	> 100	–	> 100	–	> 100	–	> 100	–
CC(C)(Cc1ccccc1)NC1=NCCO1	> 100	> 100	> 100	> 100	> 100	> 100	–	> 100	> 100	> 100	> 100	> 100	> 100	> 100	> 100	> 100	–	> 100	> 100	–
CS(=O)(=O)N/N=C/CN1C(=O)c2ccccc2C1=O	> 100	> 100	> 100	> 100	> 100	> 100	> 100	> 100	> 100	> 100	> 100	> 100	> 100	–	> 100	> 100	> 100	> 100	> 100	–
C[C@@H]1C[C@H]2[C@@H]3CCC4=CC(=O)C=C[C@]4(C)[C@@]3(Cl)[C@@H](Cl)C[C@]2(C)[C@@]1(O)C(=O)COP(=O)(O)O	> 100	> 100	> 100	> 100	> 100	> 100	> 100	> 100	> 100	> 100	> 100	> 100	–	–	> 100	> 100	33.1	> 100	> 100	> 100
NC(=O)C(N)Cc1ccc(O)cn1 (centres undefined)	> 100	> 100	> 100	> 100	> 100	> 100	> 100	> 100	> 100	> 100	> 100	> 100	> 100	> 100	> 100	–	> 100	> 100	–	–
COC(=O)Cc1cc(O)c(C/C=C(\C)CC/C=C(\C)C(O)C(=O)C=C(C)C)cc1O (centres undefined)	–	71	57.7	–	31.1	–	41.6	61.3	63	43.2	48.6	36.9	48.3	58.4	55.1	48.6	58	–	44.4	43.2
COC(=O)C(C(=O)C(=O)Nc1cccc(OC)c1)c1cnc2ccccc2n1 (centres undefined)	> 100	> 100	> 100	> 100	> 100	> 100	> 100	> 100	> 100	> 100	> 100	> 100	> 100	–	> 100	> 100	> 100	> 100	> 100	–
c1ccc2sc(C3(N4CCCC4)CCCCCC3)cc2c1	32.5	60.7	30.4	27.1	27.7	56.5	36.1	19.3	46.2	26.3	–	29.3	30.1	44.4	37	–	29.2	45.1	31.1	–
CC(=O)Nc1ccc(C(=O)NN2C(=O)C(Cl)C2c2ccccc2)cc1 (centres undefined)	> 100	> 100	> 100	–	> 100	–	> 100	> 100	> 100	–	> 100	> 100	> 100	–	> 100	> 100	> 100	> 100	> 100	–
O=[N+]([O-])c1nccn1CC(O)c1ccc(F)cc1 (centres undefined)	> 100	> 100	> 100	–	–	> 100	> 100	> 100	> 100	> 100	> 100	> 100	> 100	–	> 100	> 100	> 100	> 100	> 100	–
O=Cc1cc2c(cc1-c1c(C=O)ccc3c1OCO3)OCO2	–	> 10	> 10	> 10	> 10	> 10	> 10	> 10	> 10	> 10	> 10	> 10	–	> 10	> 10	–	> 10	> 10	> 10	> 10
O=C(c1ccc(O)cc1)C1c2c3c(cc(O)c2C(c2ccc(O)cc2)C1c1cc(O)cc(O)c1)OC(c1ccc(O)cc1)C3c1cc2c(cc1O)OC(c1ccc(O)cc1)C2c1cc(O)cc(O)c1 (centres undefined)	> 12.5	> 12.5	> 12.5	> 12.5	> 12.5	> 12.5	> 12.5	–	–	> 12.5	> 12.5	> 12.5	> 12.5	–	> 12.5	> 12.5	> 12.5	> 12.5	> 12.5	–
O=[N+]([O-])c1ccccc1S(=O)(=O)c1cc(Cl)cc2c1NCCC2	> 100	> 100	> 100	> 100	> 100	> 100	> 100	> 100	> 100	> 100	74.1	> 100	> 100	> 100	> 100	> 100	> 100	> 100	> 100	–
O=S(=O)(c1ccccc1)n1c2cc3cccnc3nc2c2cccnc21	> 100	> 100	> 100	> 100	> 100	> 100	> 100	> 100	> 100	> 100	> 100	> 100	> 100	> 100	> 100	> 100	> 100	> 100	–	–
